In article PMC5727842, “Antioxidant and Antidiabetic Effects of Flavonoids: A Structure-Activity Relationship Based Study” (BioMed Research International, 2017):

Assays:
[1] = Ferric reducing antioxidant power (FRAP); settings: for FRAP (AAE μg): ascorbic acid equivalent, mean ± SEM (n = 3), Table 2
Protocol: This assay was based on the reduction of the ferric tripyridyltriazine (Fe III-TPTZ) complex to the ferrous ion (Fe II) at a low pH forming an intense blue color. In the FRAP assay, compounds that are rich in antioxidant effect exert their action by breaking the free radical chain by donating a hydrogen atom. Briefly, ferric reducing antioxidant power (FRAP) reagent (2.5 mL of a 10 mM TPTZ solution in 40 mM HCl, 2.5 mL of 20 mM FeCl3, and 25 mL of 0.1 M acetate buffer pH 3.6) was prepared and incubated for 10 min at 37°C. Then 20 μL of each compound and ascorbic acid (standard) and 40 μL of FRAP reagent were added to 140 μL of distilled water in a 96-well plate producing a blue-colored solution. The solutions were kept at room temperature for 20 min in the dark and then measured at 593 nm with a microplate reader (Tecan, Switzerland) using a reagent blank composed of 40 μL of FRAP reagents in 200 μL of distilled water. A calibration curve was prepared with a serial dilution of ascorbic acid (standard). The total antioxidant capacity was calculated by interpolating the measured absorbance of the calibration curve and expressed as ascorbic acid equivalents. The results were corrected for dilution and expressed as AAE μg of ascorbic acid/g.

[2] = DPPH radical scavenging assay; settings: 30 min, 517 nm, mean ± SEM (n = 3)
Protocol: Each sample's stock solution was diluted to final concentrations of 1000–0.4889 μg/mL in MeOH. A total of 1 mL of a 0.3 mM DPPH methanolic solution was added to 2.5 mL of sample solution of different concentrations and allowed to react at room temperature. After 30 min, the absorbance (Abs) values were measured at 517 nm with a microplate reader (Tecan NanoQuant Infinite M200, Switzerland) and converted into the percentage antioxidant activity using the following equation described previously: (1) % antioxidant activity=100−Abssample−Abssample blank/Abscontrol−Abscontrol blank×100. MeOH + compound solution was used as a blank, while DPPH solution plus MeOH was used as a negative control. The positive controls were DPPH solution plus 1 mM ascorbic acid. The IC50 values were calculated by linear regression of plots. The average percent of scavenging capacity was taken from three replicates.

[3] = Rapid screening of radical scavenging activity by dot blot assay (DPPH staining); settings: silica sheet stained with DPPH in MeOH, dilutions from 1000 μg/mL
Protocol: An aliquot (20 μL) of each dilution of each group was carefully loaded on a […] TLC plate and allowed to dry for 10 min. Drops of each sample were loaded in the order of decreased concentration along the 16 columns. The staining of the silica plate was based on the procedure of Soler-Rivas et al.. […] The intensity of the yellow color depends upon the amount and nature of radical scavenger present in the flavonoids.

[4] = molecular target: T1, xanthine oxidase from buttermilk (Bos taurus, UniProt P80457); test: Xanthine oxidase inhibitory assay (XOI); format: biochemical; settings: for xanthine oxidase inhibitory effect (in words): discussion
T1 construct: 0.3 U/mL enzymes (xanthine oxidase from buttermilk); purchased Sigma-Aldrich (Singapore); host or cells: buttermilk (natural source)
Protocol: XO catalyzes the oxidation of hypoxanthine to xanthine and subsequently to uric acid. The inhibition of XO reduces both vascular oxidative stress and circulating levels of uric acid. This assay is based on the fact that the superoxide anions are generated by the xanthine. The xanthine oxidase inhibitory activity was measured spectrophotometrically (Tecan NanoQuant Infinite M200, Switzerland) at 295 nm under aerobic condition with slight modification. The reaction mixture contained 50 mM phosphate buffer (pH 7.5), 0.15 mM xanthine (substrate), and 0.3 U/mL enzymes (xanthine oxidase from buttermilk). Samples were prepared by dissolving 1 mg in 5% DMSO in MeOH which gives sample concentration of 144.0 μg/mL in assay. […] The absorption increment at 295 nm indicates the formation of […] of uric acid/min at 25°C. […] All determination was done in triplicate and half maximal concentration (IC50) values were calculated from the percentage of inhibition. XO inhibition activity was expressed as the percentage inhibition of XO as follows:(3) % of inhibition=AbsA−B−C−D/AbsA−B×100, where A is the negative control with B as the blank of A which is without the enzyme and the sample while C is the activity of the sample with enzyme with D as the blank of the sample without enzyme.

[5] = ABTS+ radical scavenging assay; settings: 734 nm, mean ± SEM (n = 3)
Protocol: An improved ABTS^+ radical decolorization assay was carried out involving direct production of the blue/green ABTS^+ chromophore through the reaction between ABTS and potassium persulfate. Addition of antioxidant to the preformed radical cation reduces it to ABTS to an extent on a time scale depending on the antioxidant activity, the concentration of the antioxidant, and the duration of the reaction. 1 ml ABTS was dissolved in water to make 7 mM concentration of the resultant solution. […] The resultant reaction mixture was allowed to stand in the dark at room temperature for 12–16 h before being used. The ABTS^+ radical solution was diluted with MeOH to an absorbance of 0.7 (±0.02) at 734 nm. Then, 100 μl of sample at various concentrations (1000–0.4889 μg/mL) was mixed with 100 μL of diluted ABTS^+ radical. Each concentration was analyzed in triplicate and the percentage decrease of absorbance at 734 nm with a microplate reader (Tecan NanoQuant Infinite M200, Switzerland) was calculated for each point and the antioxidant capacity of the tested compounds was expressed as percent inhibition (%). The radical scavenging activity of the compounds was measured according to the following equation [29]:(2) % inhibition=Acontrol−Asample/Acontrol×100. IC50 values were calculated by linear regression of plots, and the average percent of scavenging capacity was taken from three replicates. Trolox was used as a standard in comparison for the determination of the antioxidant activity of the flavonoids.

[6] = molecular target: T2, DPP-4 (Homo sapiens, UniProt P27487); test: Dipeptidyl peptidase IV (DPP-4) inhibitory assay; format: biochemical; settings: Table 3; mean ± SEM (n = 3); NA: not active
T2 construct: purchased Cayman (Michigan, USA)
Protocol: Dipeptidyl peptidase (IV) inhibitors work by inhibiting the action of this enzyme, thereby prolonging the activity of incretins that play an important role in insulin secretion and blood glucose control regulation. DPP-4 inhibitory assay was performed as per the standard method (Cayman, USA). Firstly, 1 mg of sample was dissolved in 10% of DMSO and MeOH as the stock solution. For initial activity (100%), 10 μL of MeOH, 30 μL of diluted assay buffer, and 10 μL of diluted DPP-4 (Cayman, USA) were added to 96-well microplate. […] For background well, 10 μL of MeOH and 40 μL of diluted assay buffer were added. Then, 10 μL of prepared sample and 30 μL of diluted assay buffer were added with 10 μL of diluted DPP-4. After that, 50 μL of substrate solution was added to all wells to initiate the reaction and further incubated in the dark at 37°C for 30 min. Finally, plate was read at 360 nm of excitation wavelength and 465 nm of emission wavelength using fluorescence microplate reader (Perkin Elmer, Germany). All determinations were done in triplicate and half maximal concentration (IC50) values were calculated from the percentage of inhibition based on the linear regression analysis. The equation given below was applied to calculate the inhibitory activity (%):(5) Inhibitory activity%=Initial Activity−Sample/Initial Activity×100%.
For DPP-4 inhibitory assay, the reaction is based on the cleavage of the peptide bond by DPP releasing the free Gly-Pro-aminomethylcoumarin group, a fluorogenic substrate resulting in fluorescence excitation and emission.

[7] = molecular target: α-glucosidase from Saccharomyces cerevisiae; test: α-Glucosidase inhibitory assay; format: biochemical; settings: Table 3; mean ± SEM (n = 3); NA: not active
Protocol: α-Glucosidase inhibitory activity of the flavonoids was carried out according to the standard method with minor modification. […] A solution of 30 mM phosphate buffer (pH 6.5) was used to prepare stock solution of the sample to form a final concentration of 160 μg/mL. Then, 10 μL/well of sample was mixed with 15 μL/well of α-glucosidase from Saccharomyces cerevisiae (Megazyme, Ireland). 50 mM buffer (pH 6.5) was used to prepare the enzyme solution. Then, 115 μL/well of 30 mM buffer (pH 6.5) was added and incubated for 5 min at room temperature. Then, 75 μL/well of PNP-glucoside was added to initiate reaction and incubated at room temperature for 15 min. Finally, about 50 μL glycine at pH 10 was added to stop the reaction. The final volume of 250 μL of compound, positive control, enzyme, 30 mM buffer, and substrate was located in 96-well microplate. The absorbance (Abs) was measured using microplate reader (Tecan NanoQuant Infinite M200, Switzerland) at 405 nm to represent the amount of p-nitrophenol released from PNP-glucoside. […] The equation given below was used to calculate the inhibitory activity (%):(4) Inhibitory activity%=Abs control−Abs sample/Abs control×100%.
Tested on yeast α-glycosidase, the reaction is initiated by reacting the inhibitor (sample) with the α-glycosidase enzyme that competes with […] for the binding site, thus releasing ρ-nitrophenol which was measured in the assay.

T2 sequence (P27487 whole entry): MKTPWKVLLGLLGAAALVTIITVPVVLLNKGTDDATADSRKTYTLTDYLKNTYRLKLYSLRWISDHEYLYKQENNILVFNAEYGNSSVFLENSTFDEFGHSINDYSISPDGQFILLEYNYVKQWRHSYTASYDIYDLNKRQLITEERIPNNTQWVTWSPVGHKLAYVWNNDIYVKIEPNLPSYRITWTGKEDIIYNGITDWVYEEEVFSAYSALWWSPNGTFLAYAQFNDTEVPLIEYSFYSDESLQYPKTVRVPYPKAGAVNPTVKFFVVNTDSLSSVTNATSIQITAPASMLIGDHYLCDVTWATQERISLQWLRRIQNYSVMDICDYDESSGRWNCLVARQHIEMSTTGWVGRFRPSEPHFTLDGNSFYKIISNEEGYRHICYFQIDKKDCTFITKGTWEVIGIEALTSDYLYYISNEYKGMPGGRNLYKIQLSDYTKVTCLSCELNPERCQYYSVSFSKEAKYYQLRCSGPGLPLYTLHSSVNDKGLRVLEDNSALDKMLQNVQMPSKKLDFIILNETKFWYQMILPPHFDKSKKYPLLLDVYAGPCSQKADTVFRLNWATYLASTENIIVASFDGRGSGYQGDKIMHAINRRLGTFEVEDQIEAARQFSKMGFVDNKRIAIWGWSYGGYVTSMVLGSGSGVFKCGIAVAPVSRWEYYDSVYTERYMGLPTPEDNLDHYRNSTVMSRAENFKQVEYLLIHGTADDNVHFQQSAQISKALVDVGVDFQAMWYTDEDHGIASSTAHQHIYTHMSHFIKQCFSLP
T1 sequence (P80457 whole entry): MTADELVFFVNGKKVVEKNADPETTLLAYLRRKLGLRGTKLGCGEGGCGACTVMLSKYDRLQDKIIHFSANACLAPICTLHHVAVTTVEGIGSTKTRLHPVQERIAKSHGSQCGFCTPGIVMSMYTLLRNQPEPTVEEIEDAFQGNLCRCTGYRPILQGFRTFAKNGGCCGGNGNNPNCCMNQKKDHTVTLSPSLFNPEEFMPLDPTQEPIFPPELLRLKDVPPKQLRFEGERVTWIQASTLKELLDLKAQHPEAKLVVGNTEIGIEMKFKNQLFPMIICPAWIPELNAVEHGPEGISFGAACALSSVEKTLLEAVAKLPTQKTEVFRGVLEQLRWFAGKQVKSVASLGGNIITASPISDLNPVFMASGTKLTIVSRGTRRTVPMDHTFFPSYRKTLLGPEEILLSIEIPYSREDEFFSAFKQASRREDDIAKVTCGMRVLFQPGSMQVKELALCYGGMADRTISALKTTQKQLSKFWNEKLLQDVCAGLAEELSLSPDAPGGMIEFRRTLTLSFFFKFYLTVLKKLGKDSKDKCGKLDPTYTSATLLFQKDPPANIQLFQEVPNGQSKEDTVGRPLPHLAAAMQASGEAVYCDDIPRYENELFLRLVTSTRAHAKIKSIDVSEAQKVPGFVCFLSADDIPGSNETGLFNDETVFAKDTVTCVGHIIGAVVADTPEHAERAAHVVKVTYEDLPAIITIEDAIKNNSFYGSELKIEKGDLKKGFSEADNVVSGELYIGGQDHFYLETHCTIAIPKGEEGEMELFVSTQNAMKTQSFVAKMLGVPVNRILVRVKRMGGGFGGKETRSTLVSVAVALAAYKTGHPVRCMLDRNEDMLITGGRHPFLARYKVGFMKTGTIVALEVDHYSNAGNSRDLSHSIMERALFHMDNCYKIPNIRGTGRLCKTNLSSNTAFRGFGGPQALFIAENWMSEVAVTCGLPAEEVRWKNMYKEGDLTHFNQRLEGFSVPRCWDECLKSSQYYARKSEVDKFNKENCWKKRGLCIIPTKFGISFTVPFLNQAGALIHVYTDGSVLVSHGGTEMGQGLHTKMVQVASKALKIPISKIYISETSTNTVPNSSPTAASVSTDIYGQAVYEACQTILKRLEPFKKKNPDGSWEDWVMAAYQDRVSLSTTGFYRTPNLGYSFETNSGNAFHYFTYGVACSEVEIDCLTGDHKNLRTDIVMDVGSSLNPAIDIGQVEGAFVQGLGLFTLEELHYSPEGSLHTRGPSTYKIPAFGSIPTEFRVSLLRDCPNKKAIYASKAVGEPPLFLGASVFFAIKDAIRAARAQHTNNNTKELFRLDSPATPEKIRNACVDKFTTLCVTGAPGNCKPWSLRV

Compound | FRAP antioxidant capacity [1] | FRAP (AAE μg) [1] | IC50 DPPH [2] | radical scavenging activity by dot blot (intensity of yellow spots) [3] | xanthine oxidase inhibitory effect (in words) [4] | IC50 ABTS+ [5] | IC50 [6] [µM] | IC50 α-Glucosidase [7] | IC50 ([4]; xanthine oxidase inhibition, 295 nm, mean ± SEM (n = 3), NA: not active) [µM]
Oc1cc(O)c2c(c1)O[C@H](c1ccc(O)c(O)c1)[C@@H](O)C2 [(+)-Catechin] | 152.07 ± 1.95 AAE μg of ascorbic acid/g | 148.12 ± 4.40^C AAE μg | 14.34 ± 1.55^EF µg/ml | strong radical scavenging activity | inactive | 0.62 ± 0.05^G µg/ml | – | – | –
Oc1cc(O)c2c(c1)O[C@H](c1ccc(O)c(O)c1)[C@H](O)C2 [(−)-Epicatechin] | 152.14 ± 7.30 AAE μg of ascorbic acid/g | 152.07 ± 1.95^C AAE μg | 9.92 ± 0.33^F µg/ml | strong radical scavenging activity | inactive | 0.70 ± 0.08^G µg/ml | – | – | –
CC(=O)Oc1cc(OC(C)=O)c2c(=O)cc(-c3ccccc3)oc2c1OC(C)=O [Acetate (norwogonin), 5,7,8-Triacetoxyflavone] | 39.63 ± 1.01 AAE μg of ascorbic acid/g | 39.63 ± 1.01^E AAE μg | >100^B µg/ml | did not show any spot | – | 78.99 ± 66.5^C µg/ml | > 252 | – | –
COc1c(OC(C)=O)cc(OC(C)=O)c2c(=O)cc(-c3ccccc3)oc12 [Acetate (wogonin), 5,7-Diacetoxy-8-methoxyflavone] | 5.06 ± 3.24 AAE μg of ascorbic acid/g | 5.06 ± 3.24^G AAE μg | >200^A µg/ml | did not show any spot | – | >200^A µg/ml | – | >100^A µg/mg | –
O=C1O[C@H]([C@@H](O)CO)C(O)=C1O [Ascorbic acid, ascorbic acid, reference compound] | 114.58 AAE μg of ascorbic acid/g | 114.58 ± 0.27^Da AAE μg | 4.75 ± 0.91^GHa µg/ml | – | – | – | – | – | –
O=c1cc(-c2ccc(O)cc2)oc2c(O)c(O)cc(O)c12 [Isoscutellarein, 4′,5,7,8-Tetrahydroxyflavone] | – | 262.91 ± 4.99^A AAE μg | 5.23 ± 0.53^GHa µg/ml | strong radical scavenging activity | low xanthine oxidase inhibitory activity | 1.73 ± 0.06^FG µg/ml | 77.7 | – | > 349
O=c1c(O)c(-c2ccc(O)cc2)oc2cc(O)cc(O)c12 [Kaempferol, 4′,3,5,7-Tetrahydroxyflavone] | 265.65 ± 5.46 AAE μg of ascorbic acid/g | 265.65 ± 5.46^A AAE μg | 10.89 ± 0.86^EF µg/ml | strong radical scavenging activity | significant xanthine oxidase inhibitory effect | 1.36 ± 0.22^FG µg/ml | 160 | – | –
COc1cc(OC)c2c(=O)cc(-c3ccccc3)oc2c1OC [Methyl ether (wogonin), 5,7,8-Trimethoxyflavone] | 1.68 ± 0.18 AAE μg of ascorbic acid/g | 1.68 ± 0.18^G AAE μg | >200^A µg/ml | did not show any spot | – | >200^A µg/ml | > 320 | – | –
O=c1c(O)c(-c2ccc(O)c(O)c2)oc2cc(O)cc(O)c12 [Quercetin, 3,3′,4′,5,7-Pentahydroxyflavone] | 148.12 ± 4.40 AAE μg of ascorbic acid/g | 138.93 ± 6.22^C AAE μg | 7.76 ± 0.99^FG µg/ml | strong radical scavenging activity | significant xanthine oxidase inhibitory effect | 0.83 ± 0.01^FG µg/ml | 72 | – | –
Cc1c(C)c2c(c(C)c1O)CCC(C)(C(=O)O)O2 (stereo not shown) [Trolox, trolox, reference compound] | – | – | – | – | – | 1.76 ± 0.15^^FG µg/ml | – | – | –
